Data taken from patent US4578380A, “5H-[1]benzopyrano[2,3-d]pyrimidine derivatives useful for controlling lesions of the gastric and duodenal mucous membranes” (Warner-Lambert Company, priority 1983, dated 1986).

What was measured:
[1] = test system: Indomethacin-Induced Ulcer; assay: Indomethacin-Induced Ulcer; format: in vivo, male rats (Sprague Dawley SIV 50); conditions: rat
Experimental: 1. Indomethacin-Induced Ulcer Test animals were male rats (Sprague Dawley SIV 50) weighing between 150-200 g. The animals were kept fasting 24 hours before starting the test, drinking water being available ad libitum. The animals were alloted to three groups, each group comprising ten rats. […] Five hours following administration the animals were killed with CO2 gas, the stomachs removed and opened along the greater curvature. After measuring the pH value the stomach was tested for ulcerations under a stereo magnifying glass. The method described by Chaumontet, et al. Arzneimittelforschung/Drug Research 28 (II) pp 2119-2121 (1978) was used to rate the ulcerations and calculate the ulcer index (UI). The effect of the substances was rendered as the percentage inhibition of the ulcers caused by indomethacin in comparison to the untreated reference group.

Cold-Stress Ulcer = assay: Cold-Stress Ulcer; format: in vivo, male rats (Sprague Dawley SIV 50); conditions: rat
Experimental: 2. Cold-Stress Ulcer Test animals were male rats (Sprague Dawley SIV 50) weighing between 110 and 150 g. The animals were kept fasting 24 hours before starting the test, drinking water being available ad libitum. […] Immediately after administration of the substances the animals were anesthetized with […] on their backs, fixed with adhesive tapes to wooden boards. Thus rendered immobile the animals were put into a permanently lit room, ambient temperature +15° C., relative humidity 50-60%, for 14 hours. After this time of exposure the rats were killed with CO2, the stomachs removed and opened along the greater curvature. After measuring the pH value the gastric mucosa was tested for ulcerations under a stereo magnifying glass. The ulcerations were rated and the ulcer index (UI) calculated as described for test 1, the effect of the substances being expressed as the percentage inhibition of the ulcer formation in comparison to the untreated control group.

gastric mucous membrane = conditions: cited from earlier work
Gastric Acid Secretion = assay: Test for the Inhibition of the Gastric Acid Secretion According to Ghosh and Schild; format: in vivo, male rats (Sprague Dawley SIV 50); conditions: rat
Experimental: 3. Test for the Inhibition of the Gastric Acid Secretion According to Ghosh and Schild (Brit. J. Pharmacol. 13 pp 54-61 (1958) The test animals were male rats (Sprague Dawley SIV 50) weighing between 300-450 g. The animals were kept fasting 24 hours before starting the test, water being available ad libitum. The animals were anesthetized with 1.25 g/kg urethane IP. Trachea, vena jugularis, arteria carotis, and oesophagus were exposed, and a fistula placed at the pylorus. Via an oesophagus tube the stomach was perfused with 1/4000 N NaOH at a flow rate of 3 ml/min. By means of the NaOH perfusion the pH of the gastric juice was adjusted to about pH 7 and continuously measured with a measuring electrode. Via the vena jugularis the acid-stimulating substance (carbachol 0.25 μg/kg/min or pentagastrin 1 μg/kg/min) was infused.

[2] = 125 mg/kg (dose column: i.g.; method: duodenal catheter)
[3] = 250 mg/kg (dose column: i.g.; method: duodenal catheter)

Structure (SMILES) | Protective Action in %, "Indomethacin" ulcer model ([1]; 125 mg/kg i.g.) [%] | Protective Action in %, "Indomethacin" ulcer model ([1]; 250 mg/kg i.g.) [%] | Protective Action in %, "Stress" ulcer model (Cold-Stress Ulcer; 125 mg/kg i.g.) [%] | Antisecretion (Gosh + Schild Model) (Gastric Acid Secretion; [2]) | Antisecretion (Gosh + Schild Model) (Gastric Acid Secretion; [3]) | further results
CN/C(=N/CCSCc1nc[nH]c1C)NC#N [Cimetidine, reference compound] |  |  |  |  |  | Protective Action in %, "Indomethacin" ulcer model ([1]; 100 mg/kg i.g.): 80%; Protective Action in %, "Indomethacin" ulcer model ([1]; 200 mg/kg i.g.): 89%; Protective Action in %, "Indomethacin" ulcer model ([1]; 3 × 100 mg/kg i.g.): 39%; Protective Action in %, "Stress" ulcer model (Cold-Stress Ulcer; 100 mg/kg i.g.): 53%; Protective Action in %, "Stress" ulcer model (Cold-Stress Ulcer; 200 mg/kg i.g.): 54%; undesired side effects (gastric mucous membrane; general statement in therapy): undesired CNS and other side effects; changes of the gastric mucous membrane / relapse ulcers (gastric mucous membrane; long-term treatment, following discontinuation): changes of the gastric mucous membrane found under long-term treatment; Antisecretion (Gosh + Schild Model): pH reached (Gastric Acid Secretion; 5 mg/kg i.v., after 35 min): 7.9 pH; Antisecretion (Gosh + Schild Model): time after which pH 7.9 was reached (Gastric Acid Secretion; 5 mg/kg i.v.): 35 min
CN(C)CCCSc1nc(-c2ccccc2)nc2c1Cc1ccccc1O2 [Compound (1), 4-(3-dimethylaminopropylthio)-2-phenyl-5H-[1]benzopyrano[2,3-d]pyrimidine] | 88 | 95 | 70 | No effect | No effect | Protective Action in %, "Stress" ulcer model (Cold-Stress Ulcer; 250 mg/kg i.g.): 86%
Cc1ccc(-c2nc3c(c(SCCCN(C)C)n2)Cc2ccccc2O3)cc1 [Compound (16)] | 83 | 99.5 | 72 | No effect | No effect | 
Cc1ccc(-c2nc3c(c(SCCCN4CCOCC4)n2)Cc2ccccc2O3)cc1 [Compound (26), 2-(4-methylphenyl)-4-(3-morpholinopropylthio)-5H-[1]benzopyrano[2,3-d]pyrimidine] |  | 50 |  |  | No effect | 
CNCCCSc1nc(-c2ccc(C)cc2)nc2c1Cc1ccccc1O2 [Compound (27a), 4-(3-methylaminopropylthio)-2-(4-methylphenyl)-5H-[1]benzopyrano[2,3-d]pyrimidine] |  | 94 |  |  | No effect | 
